Legend:
[1] = tested on: SNU-398 cells; assay: Caspase 3/7 assay in SNU-398 cells; assay type: cell-based, human; settings: SNU-398 after knockdown
Source text: FIGS. 25A-25G: Functional roles of SALL4 in HCC. (25A) qPCR analysis of relative SALL4A and SALL4B expression on SNU-398 cells four days post-transduction. Error bars indicate standard error of three replicates. (25B) Western blot analysis of SALL4 expression on SNU-398 cells four days post-transduction. (25C) MTS analysis of cell viability upon gene knockdown by scrambled control shRNA (Scr) or E5 shRNA targeting SALL4 (E5) on SNU-398 (left) or SNU-387 (right) cells. Error bars indicate standard error of three replicates. (25D) Cell counting assay using trypan blus stain. […] (25F) Effects of SALL4 gene knockdown on tumorigenecity of HuH-7 cells. Representative images of mice transplanted with HuH-7 cells infected with virus expressing scrambled shRNA or E5 shRNA (top).
To further characterize the effects of loss of SALL4 in HCC cells, more functional assays in SNU-398 cells, which express high SALL4, were carried out. […] Furthermore, increased apoptosis in SALL4-knockdown HCC cells was observed by assessing caspase activities. Increased caspase 3/7 activities was observed upon loss of SALL4 in SNU-398 HCC cells (FIG. 30D), as well as increased cleaved caspase 3 (FIG. 30E).

[2] = tested on: H661 lung carcinoma cells; assay: MTS assay in lung carcinoma cells after knock-down; assay type: cell-based
Source text: FIGS. 16A-16B: Loss of SALL4 in lung cancer cells that express high level of SALL4 decreases cell viability. (16A) qPCR (bar chart) and western blot were done to confirm the dwonregulation of SALL4 RNA (qPCR) and protein (western blot) expression levels upon SALL4 gene knockdown by shRNA (E5) compared to the control (SC).

## CTATTTAGCCAAAGGCAAA (short hairpin RNA, chemistry and delivery not given here, further chemistry not given here) [E5 shRNA]
[1]
  caspase 3/7 activity (apoptosis): increase in apoptosis activity
[2]
  cell viability (MTS): decrease of cell viability

— US9365851B2, “Spalt-like transcription factor 4 (SALL4) and uses thereof” (National University of Singapore, priority 2011, dated 2016)
